Values after ≈ are worked out from the molar mass of the structure shown.
Legend:
Assay in all cases: ≥ marks a high value that may be exact or a test limit, other limits are often not marked, values filed in µg/mL are converted to µM
[1] = system: Escherichia coli ATCC 25922
[2] = system: Candida albicans ATCC 90028
[3] = system: Staphylococcus aureus ATCC 25923
[4] = system: Candida albicans ATCC 2002
Escherichia coli = system: Escherichia coli
Bacillus subtilis = system: Bacillus subtilis
[5] = system: Pseudomonas aeruginosa ATCC 9027
[6] = system: Candida albicans ATCC 10231
Staphylococcus aureus = system: Staphylococcus aureus
Candida albicans = system: Candida albicans
[7] = system: Staphylococcus epidermidis
[8] = system: Klebsiella pneumoniae ATCC 700603
Acinetobacter baumannii = system: Acinetobacter baumannii
[9] = system: Staphylococcus aureus ATCC 6538
[10] = system: Bacillus subtilis ATCC 6633

CC[C@H](C)[C@H](NC(=O)[C@@H]1CCCN1C(=O)[C@H](CC(C)C)NC(=O)[C@@H](N)Cc1ccccc1)C(=O)N[C@@H](CC(C)C)C(=O)NCC(=O)N[C@@H](CCCCN)C(=O)N[C@@H](CC(C)C)C(=O)N[C@@H](CC(C)C)C(=O)N[C@@H](CO)C(=O)NCC(=O)N[C@@H](CC(C)C)C(=O)N[C@@H](CC(C)C)C(N)=O [FLPILGKLLSGLL]
MIC [1]: > 160 µM | MIC [2]: ≥ 80 µM | MIC [3]: 10 µM (≈ 13.8 µg/mL)

CC[C@H](C)[C@H](NC(=O)[C@@H](NC(=O)[C@@H](NC(=O)[C@@H]1CCCN1C(=O)[C@H](Cc1c[nH]c2ccccc12)NC(=O)[C@H](Cc1ccccc1)NC(=O)[C@H](CCCN=C(N)N)NC(=O)[C@H](CCCCN)NC(=O)[C@@H](NC(=O)[C@@H](N)CCCN=C(N)N)[C@@H](C)CC)C(C)C)C(C)C)C(=O)N[C@@H](CCCN=C(N)N)C(=O)N[C@H](C(=O)N[C@H](C(=O)N[C@H](C(=O)N[C@@H](C)C(=O)NCC(=O)N[C@@H](Cc1ccc(O)cc1)C(=O)N[C@@H](CC(N)=O)C(=O)N[C@@H](CC(C)C)C(=O)O)C(C)C)C(C)C)[C@@H](C)O [RIKRFWPVVIRTVVAGYNL]
MIC [1]: 87.4 µM (≈ 200 µg/mL) | MIC [4]: ≥ 32.8 µM

CC[C@H](C)[C@H](N)C(=O)N[C@@H](CC(N)=O)C(=O)N[C@@H](Cc1c[nH]c2ccccc12)C(=O)N[C@@H](CCCCN)C(=O)N[C@@H](CCCCN)C(=O)NCC(=O)N[C@@H](CCCCN)C(=O)N[C@@H](CCC(=O)O)C(=O)N[C@H](C(=O)N[C@@H](CC(C)C)C(=O)N[C@@H](CCCCN)C(=O)N[C@@H](C)C(=O)N[C@@H](CC(C)C)C(N)=O)C(C)C [INWKKGKEVLKAL]
MIC (Escherichia coli): > 100 µM | MIC (Bacillus subtilis): ≥ 100 µM

N[C@@H](CC(=O)O)C(=O)N[C@@H](Cc1ccc(O)cc1)C(=O)N[C@@H](CC(=O)O)C(=O)N[C@@H](CC(=O)O)C(=O)O [DYDD]
MIC [5]: 17200 µM (≈ 9040 µg/mL) | MIC [1]: 34300 µM (≈ 18100 µg/mL) | MIC [6]: 8580 µM (≈ 4520 µg/mL)

CC[C@H](C)[C@@H]1NC(=O)[C@H](CO)NC(=O)[C@H](CCCCN)NC(=O)[C@H]([C@@H](C)O)NC(=O)[C@H](Cc2c[nH]c3ccccc23)NC(=O)[C@@H](NC(=O)CNC(=O)[C@H](CCCCN)NC(=O)[C@H](CC(C)C)NC(=O)[C@H](C)NC(=O)[C@H](C)N)CSSC[C@@H](C(=O)N[C@@H](Cc2ccccc2)C(=O)NCC(=O)N[C@@H](CCCCN)C(=O)N[C@@H](CCCN=C(N)N)C(=O)O)NC(=O)[C@@H]2CCCN2C(=O)[C@H](CCCCN)NC(=O)[C@@H]2CCCN2C(=O)[C@@H]2CCCN2C1=O [AALKGCWTKSIPPKPCFGKR]
MIC (Escherichia coli): 1.47 µM (≈ 3.21 µg/mL) | MIC (Staphylococcus aureus): 2.66 µM (≈ 5.82 µg/mL) | MIC (Candida albicans): 1.1 µM (≈ 2.4 µg/mL) | MIC (Bacillus subtilis): 0.845 µM (≈ 1.85 µg/mL)

CC[C@H](C)[C@H](NC(=O)[C@H](CO)NC(=O)[C@@H](NC(=O)[C@H](CCCCN)NC(=O)[C@H](Cc1ccccc1)NC(=O)[C@@H]1CCCN1C(=O)[C@@H](N)[C@@H](C)O)[C@@H](C)CC)C(=O)N[C@@H](Cc1cnc[nH]1)C(=O)N[C@@H](CC(C)C)C(=O)NCC(=O)NCC(=O)N[C@@H](Cc1ccc(O)cc1)C(N)=O [TPFKISIHLGGY]
MIC [7]: ≥ 150 µM

CC[C@H](C)[C@H](NC(=O)[C@H](CCCN=C(N)N)NC(=O)[C@H](CC(C)C)NC(=O)[C@@H](NC(=O)[C@H](Cc1ccccc1)NC(=O)[C@H](CCCN=C(N)N)NC(=O)[C@H](C)NC(=O)[C@@H](N)CC(C)C)C(C)C)C(=O)N[C@@H](CC(C)C)C(=O)N[C@@H](CCCCN)C(=O)N[C@@H](Cc1ccc(O)cc1)C(=O)NCC(=O)N[C@@H](Cc1ccccc1)C(=O)N[C@@H](CCCCN)C(=O)O [LARFVLRILKYGFK]
MIC [5]: 64 µM (≈ 110 µg/mL) | MIC [1]: 64 µM (≈ 110 µg/mL) | MIC [8]: 64 µM (≈ 110 µg/mL) | MIC [3]: 32 µM (≈ 55.2 µg/mL) | MIC (Acinetobacter baumannii): 8 µM (≈ 13.8 µg/mL)

CC(C)C[C@H](NC(=O)[C@H](C)NC(=O)[C@H](C)NC(=O)[C@H](CCCCN)NC(=O)[C@H](C)NC(=O)[C@H](CC(C)C)NC(=O)[C@H](CCCCN)NC(=O)[C@H](CCCCN)NC(=O)[C@H](C)NC(=O)[C@H](CC(C)C)NC(=O)[C@H](CCCCN)NC(=O)[C@H](CCCCN)NC(=O)[C@H](C)NC(=O)[C@@H](N)Cc1ccccc1)C(N)=O [FAKKLAKKLAKAAL]
MIC [5]: 66.6 µM (≈ 99.9 µg/mL) | MIC [9]: 6.66 µM (≈ 9.99 µg/mL)

CC[C@H](C)[C@H](N)C(=O)N[C@@H](CC(C)C)C(=O)N[C@@H](CCCCN)C(=O)N1CCC[C@H]1C(=O)N[C@@H](CCCCN)C(=O)N[C@@H](CC(C)C)C(=O)N[C@@H](Cc1c[nH]c2ccccc12)C(=O)N[C@@H](CCCCN)C(=O)N[C@@H](CC(C)C)C(=O)N[C@H](C(=O)N[C@H](C(=O)N[C@H](C(=O)N[C@@H](C)C(=O)N[C@@H](CCCN=C(N)N)C(=O)N[C@@H](CCCCN)C(=O)N[C@H](C(=O)N[C@H](C(=O)N[C@@H](CCCCN)C(=O)O)[C@@H](C)CC)[C@@H](C)CC)C(C)C)C(C)C)[C@@H](C)O [ILKPKLWKLTVVARKIIK]
MIC [5]: 64 µM (≈ 137 µg/mL) | MIC [1]: 64 µM (≈ 137 µg/mL) | MIC [8]: > 64 µM | MIC [3]: > 64 µM | MIC (Acinetobacter baumannii): ≥ 64 µM

CC(C)C[C@H](NC(=O)[C@H](CCCCN)NC(=O)[C@H](CCCCN)NC(=O)[C@H](C)NC(=O)[C@H](CC(C)C)NC(=O)[C@H](CCCCN)NC(=O)[C@H](CCCCN)NC(=O)[C@H](CC(C)C)NC(=O)[C@H](CCCCN)NC(=O)[C@H](CCCCN)NC(=O)[C@H](C)NC(=O)[C@@H](N)Cc1ccccc1)C(N)=O [FAKKLKKLAKKL]
MIC [5]: 141 µM (≈ 200 µg/mL) | MIC [9]: 70.6 µM (≈ 99.9 µg/mL)

CC[C@H](C)[C@H](NC(C)=O)C(=O)N[C@@H](CC(N)=O)C(=O)N[C@@H](Cc1c[nH]c2ccccc12)C(=O)N[C@@H](CC(C)C)C(=O)N[C@@H](CCCCN)C(=O)N[C@@H](CC(C)C)C(=O)NCC(=O)N[C@@H](CCCCN)C(=O)N[C@@H](CCCCN)C(=O)N[C@@H](CC(C)C)C(=O)N[C@@H](CC(C)C)C(=O)N[C@@H](CO)C(=O)N[C@@H](C)C(=O)N[C@@H](CC(C)C)C(N)=O [INWLKLGKKLLSAL]
MIC (Escherichia coli): > 100 µM | MIC (Bacillus subtilis): 25 µM (≈ 41 µg/mL)

CC[C@H](C)[C@H](NC(=O)[C@H](CCCCN)NC(=O)[C@H](CS)NC(=O)[C@H](C)NC(=O)[C@@H](NC(=O)[C@H](Cc1ccccc1)NC(=O)CNC(=O)[C@H](CC(C)C)NC(=O)CNC(=O)[C@@H](NC(=O)[C@H](CCCCN)NC(=O)CNC(=O)[C@H](CC(C)C)NC(=O)[C@H](CC(N)=O)NC(=O)[C@H](CCCCN)NC(=O)[C@H](CC(C)C)NC(=O)[C@@H](NC(=O)CNC(=O)[C@H](CC(C)C)NC(=O)[C@H](CCSC)NC(=O)[C@@H](N)CO)C(C)C)C(C)C)C(C)C)C(=O)N[C@@H](CC(N)=O)C(=O)N[C@@H](CCCCN)C(=O)N[C@@H](CCC(N)=O)C(=O)N[C@@H](CS)C(=O)O [SMLGVLKNLGKVGLGFVACKINKQC]
MIC (Escherichia coli): 40 µM (≈ 105 µg/mL) | MIC (Staphylococcus aureus): > 200 µM | MIC (Candida albicans): 200 µM (≈ 524 µg/mL)

CC(C)C[C@H](NC(=O)[C@H](CCCCN)NC(=O)[C@H](CCCCN)NC(=O)[C@H](C)NC(=O)[C@H](CC(C)C)NC(=O)[C@H](CCCCN)NC(=O)[C@H](CCCCN)NC(=O)[C@H](CC(C)C)NC(=O)[C@H](CCCCN)NC(=O)[C@H](CCCCN)NC(=O)[C@H](C)NC(=O)[C@H](CC(C)C)NC(=O)[C@H](CCCCN)NC(=O)[C@H](CCCCN)NC(=O)[C@H](C)NC(=O)[C@H](Cc1ccccc1)NC(=O)[C@H](CCCCN)NC(=O)[C@H](CCCCN)NC(=O)[C@H](Cc1ccccc1)NC(=O)[C@H](CC(C)C)NC(=O)[C@H](CCCCN)NC(=O)[C@@H](NC(=O)[C@@H](N)CCCCN)[C@@H](C)O)C(=O)O [KTKLFKKFAKKLAKKLKKLAKKL]
MIC [5]: 36.6 µM (≈ 100 µg/mL) | MIC [9]: 3.66 µM (≈ 10 µg/mL)

NCCCC[C@H](NC(=O)[C@H](CCCCN)NC(=O)[C@H](Cc1c[nH]c2ccccc12)NC(=O)[C@H](CCCCN)NC(=O)[C@H](Cc1ccccc1)NC(=O)[C@H](CCCN=C(N)N)NC(=O)[C@H](Cc1c[nH]c2ccccc12)NC(=O)[C@@H](N)CCCN=C(N)N)C(=O)O [RWRFKWKK]
MIC [1]: > 81 µM | MIC [6]: > 81 µM | MIC [3]: > 81 µM | MIC [10]: ≥ 81 µM

From DBAASP
